# Experimental data as given in patent US8003801B2 (The Scripps Research Institute, priority 2005, dated 2011).
# “And” between values parts separate entries of the source, which are not always exact repeats. Equal values may be shown once. Read-outs that look alike come from different tables or passages of the source.
# Columns and labels:
# [1] = system: KB-31 human epidermoid cancer cell line; assay: 72 hour growth-inhibition (cytotoxicity) assay, KB-31 cells; type: cell-based
# [2] = system: KB-8511, Taxol-resistant (Pgp-overexpression) KB cell line; assay: 72 hour growth-inhibition (cytotoxicity) assay, KB-8511 cells
# Description: In addition, further cytotoxicity studies were carried out using a pair of drug-sensitive parental human epidermoid carcinoma cells (KB-31) and its Taxol™-resistant Pgp-overexpressing subline (KB-5811).
# [3] = system: 1A9/PTX10, Taxol-resistant 1A9 cell line (β270 Phe→Val); assay: 72 hour growth-inhibition (cytotoxicity) assay, 1A9/PTX10 cells; type: cell-based, human; conditions: for RRp (relative resistance), 1A9/PTX10: IC50 of 1A9/PTX10 divided by IC50 of the parental cell line 1A9
# [4] = system: 1A9/A8, EpoA-resistant 1A9 cell line (β274 Thr→Ile); assay: 72 hour growth-inhibition (cytotoxicity) assay, 1A9/A8 cells; type: cell-based, human; conditions: for RRp (relative resistance), 1A9/A8: IC50 of 1A9/A8 divided by IC50 of the parental cell line
# [5] = system: drug-sensitive and drug-resistant human cancer cell lines; assay: Cytotoxicity assays across the panel of cell lines (summary in words); type: cell-based; conditions: summary of Tables 1A-1C
# [6] = system: A2780/AD10, drug-resistant clone of human ovarian carcinoma A2780 overexpressing P-glycoprotein; assay: 72 hour growth-inhibition (cytotoxicity) assay, A2780/AD10 cells; type: cell-based; conditions: for IC50: 72 hour growth inhibition, sulforhodamine-B staining, mean of 3-5 experiments ± SEM; for RRp (relative resistance), A2780/AD10: IC50 of A2780/AD10 divided by IC50 of the parental cell line
# [7] = system: 1A9 human ovarian cancer cell line; assay: 72 hour growth-inhibition (cytotoxicity) assay, 1A9 cells; type: cell-based
# [8] = Homo sapiens, KB 3-1, 72 h, read-out: KB-31 IC50
# [9] = read-out: KB-8511 IC50, 72 hour growth inhibition, methylene blue staining, mean of 3-5 experiments ± SEM
# [10] = Homo sapiens, 1A9/ptx-10, 72 hour growth inhibition, sulforhodamine-B staining, mean of 3-5 experiments ± SEM, read-out: 1A9/PTX10 IC50
# [11] = Homo sapiens, 1A9, 72 hour growth inhibition, sulforhodamine-B staining, mean of 3-5 experiments ± SEM, read-out: 1A9/A8 IC50
# [12] = Homo sapiens, 1A9, 72 hour growth inhibition, sulforhodamine-B staining, mean of 3-5 independent experiments ± standard error of the mean, read-out: 1A9 IC50
# [13] = 72 hour growth inhibition, sulforhodamine-B staining, mean of 3-5 experiments ± SEM, read-out: 1A9/PTX10 IC50
# [14] = 72 hour growth inhibition, sulforhodamine-B staining, mean of 3-5 experiments ± SEM, read-out: 1A9/A8 IC50
# [15] = 72 hour growth inhibition, sulforhodamine-B staining, mean of 3-5 independent experiments ± standard error of the mean, read-out: 1A9 IC50
# [16] = ratio of IC50 of EpoB to IC50 of the tested compound in the concurrent assay
Structure (SMILES),"IC50 [1, 8]","IC50 [2, 9]","IC50 [3, 10]","RRp (relative resistance), 1A9/PTX10 [3]","IC50 [4, 11]","RRp (relative resistance), 1A9/A8 [4]","IC50 ([6]; Homo sapiens, A2780)","RRp (relative resistance), A2780/AD10 [6]","IC50 [7, 12]",other results
C/C(=C\c1ccn(-c2ccccc2)n1)[C@@H]1C[C@@H]2O[C@]2(C)CCC[C@H](C)[C@H](O)[C@@H](C)C(=O)C(C)(C)[C@@H](O)CC(=O)O1 [Compound 15],2.27 ± 0.16 nM,1.62 ± 0.14 nM,25.8 ± 19.8 nM,4.7,4.8 ± 3.6 nM,0.9,6.4 nM,107,5.45 ± 3.7 nM,"cytotoxicity across the tested cell lines, in words [5]: somewhat less active"
COc1nc(/C=C(\C)[C@@H]2C[C@@H]3O[C@]3(C)CCC[C@H](C)[C@H](O)[C@@H](C)C(=O)C(C)(C)[C@@H](O)CC(=O)O2)nc2c1ncn2C [Compound 18],0.15 ± 0.09 nM,7.45 ± 0.81 nM,19.8 ± 10.6 nM,5.4,2.2 ± 1.6 nM,0.6,47.3 ± 36.5 nM,47.3,3.7 ± 1.8 nM,
"CC(=O)O[C@H]1C(=O)[C@@]2(C)[C@H]([C@H](OC(=O)c3ccccc3)[C@]3(O)C[C@H](OC(=O)[C@H](O)[C@@H](NC(=O)c4ccccc4)c4ccccc4)C(C)=C1C3(C)C)[C@]1(OC(C)=O)CO[C@@H]1C[C@@H]2O [Taxol ™, reference compound]",,1130 ± 74 nM,,,,,> 150 nM,,,"IC50 ([1]; Homo sapiens, KB 3-1, 72 hour growth inhibition, methylene blue staining, mean of 3-5 experiments ± SEM, read-out: KB-31 IC50): 6.08 ± 1.19 nM"
C/C(=C\c1nnn(COCc2ccccc2)n1)[C@@H]1C[C@@H]2O[C@]2(C)CCC[C@H](C)[C@H](O)[C@@H](C)C(=O)C(C)(C)[C@@H](O)CC(=O)O1 [Compound 20],0.57 ± 0.08 nM,4.44 ± 0.69 nM,49 ± 7 nM,12.3,16.8 ± 9.2 nM,4.2,> 750 nM,,4 ± 0.3 nM,
CSc1nc(/C=C(\C)[C@@H]2C[C@@H]3O[C@]3(C)CCC[C@H](C)[C@H](O)[C@@H](C)C(=O)C(C)(C)[C@@H](O)CC(=O)O2)nc2c1ncn2C [Compound 19],0.36 ± 0.17 nM,6.21 ± 0.86 nM,2 ± 1.5 nM,2.0,2.8 ± 2.2 nM,2.8,67 ± 9.8 nM,16.8,1 ± 0.8 nM,
C/C(=C\c1nc(Br)c(Br)n1C)[C@@H]1C[C@@H]2O[C@]2(C)CCC[C@H](C)[C@H](O)[C@@H](C)C(=O)C(C)(C)[C@@H](O)CC(=O)O1 [Compound 12],> 1000 nM,> 1000 nM,> 750 nM,,> 750 nM,,574 nM,,> 750 nM,
C/C(=C\c1nc(Cl)c2ncn(C)c2n1)[C@@H]1C[C@@H]2O[C@]2(C)CCC[C@H](C)[C@H](O)[C@@H](C)C(=O)C(C)(C)[C@@H](O)CC(=O)O1 [Compound 17],1.62 ± 0.22 nM,20.2 ± 2.14 nM,13.6 ± 7.3 nM,3.7,4 ± 2.5 nM,1.1,46.3 ± 33.2 nM,12.5,3.7 ± 1.5 nM,
"C/C(=C\c1csc(C)n1)[C@@H]1C[C@@H]2O[C@@H]2CCC[C@H](C)[C@H](O)[C@@H](C)C(=O)C(C)(C)[C@@H](O)CC(=O)O1 [EpoA, reference compound]",,,,2.1,,17.1,,25.7,,"IC50 [3, 13]: 5.1 ± 2.6 nM; IC50 [4, 14]: 41 ± 7.3 nM; IC50 [6]: 25.4 ± 8.6 nM; IC50 [7, 15]: 2.4 ± 2.6 nM"
"C/C(=C\c1csc(C)n1)[C@@H]1C[C@@H]2O[C@]2(C)CCC[C@H](C)[C@H](O)[C@@H](C)C(=O)C(C)(C)[C@@H](O)CC(=O)O1 [EpoB, reference compound]",,0.39 ± 0.02 nM,,7.9,,10.1,,15.7,,"IC50 ([1]; 72 hour growth inhibition, methylene blue staining, mean of 3-5 experiments ± SEM, read-out: KB-31 IC50): 0.42 ± 0.03 nM; IC50 ([1]; read-out: EpoB (IC50 in the concurrent assay), KB-31, Table 2, EpoB determined concurrently with the epothilone): 0.19 nM; IC50 [3, 13]: 7.8 ± 4.6 nM; IC50 ([3]; read-out: EpoB (IC50 in the concurrent assay), 1A9/PTX10, Table 2, EpoB determined concurrently with the epothilone): 3.7 nM and 3.1 nM; IC50 [4, 14]: 10 ± 1.4 nM; IC50 ([4]; read-out: EpoB (IC50 in the concurrent assay), 1A9/A8, Table 2, EpoB determined concurrently with the epothilone): 10 nM and 6.5 nM; IC50 [6]: 56.5 ± 23.3 nM; IC50 [7, 15]: 0.99 ± 0.8 nM; IC50 ([7]; read-out: EpoB (IC50 in the concurrent assay), 1A9, Table 2, EpoB determined concurrently with the epothilone, unit from Table 1A note a): 0.3 nM and 0.6 nM"
"CC(=O)O[C@@]12CO[C@@H]1C[C@H](O)[C@@]1(C)C(=O)[C@H](O)C3=C(C)[C@@H](OC(=O)[C@H](O)[C@@H](NC(=O)OC(C)(C)C)c4ccccc4)C[C@@](O)([C@@H](OC(=O)c4ccccc4)[C@H]21)C3(C)C [Taxotere ™, reference compound]",,,32 ± 6.8 nM,21.3,0.8 ± 0.2 nM,0.5,29.4 ± 5.4 nM,12.3,1.5 ± 1.1 nM,
C/C(=C\c1cn(C)cn1)[C@@H]1C[C@@H]2O[C@]2(C)CCC[C@H](C)[C@H](O)[C@@H](C)C(=O)C(C)(C)[C@@H](O)CC(=O)O1 [Compound 11],277 ± 122 nM,> 1000 nM,> 750 nM,,150 nM,0.8,> 750 nM,,181 ± 81.6 nM,
C/C(=C\c1c(I)ncn1C)[C@@H]1C[C@@H]2O[C@]2(C)CCC[C@H](C)[C@H](O)[C@@H](C)C(=O)C(C)(C)[C@@H](O)CC(=O)O1 [Compound 10],> 1000 nM,> 1000 nM,> 750 nM,,> 750 nM,,1070 nM,5.9,> 750 nM,
"CSc1nc(/C=C(\C)[C@@H]2C[C@@H]3C[C@]3(C)CCC[C@H](C)[C@H](O)[C@@H](C)C(=O)C(C)(C)[C@@H](O)CC(=O)O2)cs1 [Compound 4, reference compound]",,,,,,,,,,"IC50 ([1]; Homo sapiens, KB 3-1, read-out: IC50, KB-31 (Table 2)): 0.2 nM; IC50 ([2]; read-out: IC50, KB-5811 (Table 2), Table 2, tested epothilone, cell line KB-5811, unit from Table 1A note a): 0.12 nM; IC50 ([3]; Homo sapiens, 1A9/ptx-10, Table 2, tested epothilone, unit from Table 1A note a, read-out: IC50, 1A9/PTX10 (Table 2)): 0.7 nM; RAEpoB (relative activity), 1A9/PTX10 [3, 16]: 4.4; IC50 ([4]; Homo sapiens, 1A9, Table 2, tested epothilone, unit from Table 1A note a, read-out: IC50, 1A9/A8 (Table 2)): 2.4 nM; RAEpoB (relative activity), 1A9/A8 [4, 16]: 2.7; IC50 ([7]; Homo sapiens, 1A9, Table 2, tested epothilone, unit from Table 1A note a, read-out: IC50, 1A9 (Table 2)): 0.1 nM; RAEpoB (relative activity), 1A9 [7, 16]: 6.0"
CSc1nc(/C=C(\C)[C@@H]2C[C@@H]3O[C@]3(C)CCC[C@H](C)[C@H](O)[C@@H](C)C(=O)C(C)(C)[C@@H](O)CC(=O)O2)c(SC)n1C [Compound 13],240 ± 34 nM,247 ± 47.9 nM,> 750 nM,,574 nM,,1.3 ± 0.3 nM,2.6,> 750 nM,
